We go through 16 compounds from ChEMBL document CHEMBL5233215, “Recent developments of chalcones as potential antibacterial agents in medicinal chemistry” (Eur J Med Chem, 2020).

Test [1] deals with DNA. The test is described as follows: Binding affinity to DNA (unknown origin) assessed as DNA intercalation by measuring amount of methyl green dye replaced from DNA-methyl green complex after 24 hrs by colourimetric assay. Type of test: nucleic-acid assay.
The test system of test [2] is Pseudomonas aeruginosa. The test is described as follows: Antibacterial activity Pseudomonas aeruginosa Ps12 assessed as inhibition of bacterial growth incubated for 24 hrs by microbroth dilution assay. Type of test: functional. On the technique in general: Dilution methods test growth across graded concentrations, often in twofold steps.
Test [3] concerns Klebsiella pneumoniae. The test is described as follows: Antibacterial activity Klebsiella pneumoniae K4 assessed as inhibition of bacterial growth incubated for 24 hrs by microbroth dilution assay. Type of test: functional.
Test [4] concerns Staphylococcus aureus. The test is described as follows: Antibacterial activity methicillin-sensitive Staphylococcus aureus ATCC 29213 assessed as inhibition of bacterial growth by CLSI based microbroth dilution assay. Type of test: functional.
Test [5] deals with Staphylococcus aureus. The test is described as follows: Antibacterial activity methicillin-resistant Staphylococcus aureus USA300 assessed as inhibition of bacterial growth by CLSI based microbroth dilution assay. Format: functional.
The test system of test [6] is Micrococcus luteus. The test is described as follows: Antibacterial activity Micrococcus luteus NBRC 333 assessed as inhibition of bacterial growth after 48 hrs by two fold dilution method. Format: functional.
Test [7] concerns Bacillus subtilis. The test is described as follows: Antibacterial activity Bacillus subtilis NBRC 3757 assessed as inhibition of bacterial growth after 48 hrs by two fold dilution method. Type of test: functional.
The subject of test [8] is Staphylococcus epidermidis. The test is described as follows: Antibacterial activity Staphylococcus epidermidis NBRC 12993 assessed as inhibition of bacterial growth after 48 hrs by two fold dilution method. Format: functional.
For test [9], the system named is Bacillus anthracis. The test is described as follows: Antibacterial activity Bacillus anthracis Sterne 34F2 assessed as inhibition of bacterial growth by CLSI based microbroth dilution assay. Format: functional.
Test [10] has as its system Staphylococcus aureus. The test is described as follows: Antibacterial activity methicillin-resistant Staphylococcus aureus MRSA ST-10342 assessed as inhibition of bacterial growth incubated for 16 to 24 hrs by broth microdilution assay. The conditions noted are these: time 16-24 hrs. Type of test: functional.
Test [11] has as its system Staphylococcus aureus. The test is described as follows: Antibacterial activity methicillin-resistant Staphylococcus aureus MRSA ST-2438 assessed as inhibition of bacterial growth incubated for 16 to 24 hrs by broth microdilution assay. Format: functional. The note with it: time 16-24 hrs.
Test [12] relates to Staphylococcus aureus. The test is described as follows: Antibacterial activity methicillin-resistant Staphylococcus aureus MRSA ST-2071 assessed as inhibition of bacterial growth incubated for 16 to 24 hrs by broth microdilution assay. Format: functional. The note with it: time 16-24 hrs.
Test [13] deals with Staphylococcus aureus. The test is described as follows: Antibacterial activity methicillin-resistant Staphylococcus aureus MRSA P-6642 assessed as inhibition of bacterial growth incubated for 16 to 24 hrs by broth microdilution assay. Format: functional. The conditions noted are these: time 16-24 hrs.
Test [14] relates to Staphylococcus aureus. The test is described as follows: Antibacterial activity methicillin-resistant Staphylococcus aureus MRSA ST-1745 assessed as inhibition of bacterial growth incubated for 16 to 24 hrs by broth microdilution assay. Format: functional. The conditions noted are these: time 16-24 hrs.
In test [15] the test system is Staphylococcus aureus. The test is described as follows: Antibacterial activity methicillin-resistant Staphylococcus aureus MRSA P-8029 assessed as inhibition of bacterial growth incubated for 16 to 24 hrs by broth microdilution assay. The conditions noted are these: time 16-24 hrs. Format: functional.
For test [16], the system named is Staphylococcus aureus. The test is described as follows: Antibacterial activity methicillin-resistant Staphylococcus aureus MRSA ST-3151 assessed as inhibition of bacterial growth incubated for 16 to 24 hrs by broth microdilution assay. The note with it: time 16-24 hrs. Type of test: functional.
Test [17] has as its system Staphylococcus aureus. The test is described as follows: Antibacterial activity methicillin-resistant Staphylococcus aureus MRSA B-10732 assessed as inhibition of bacterial growth incubated for 16 to 24 hrs by broth microdilution assay. Type of test: functional. The conditions noted are these: time 16-24 hrs.
The test system of test [18] is Staphylococcus aureus. The test is described as follows: Antibacterial activity methicillin-resistant Staphylococcus aureus MRSA ST-5457 assessed as inhibition of bacterial growth incubated for 16 to 24 hrs by broth microdilution assay. Type of test: functional. The note with it: time 16-24 hrs.
Test [19] deals with Staphylococcus aureus. The test is described as follows: Antibacterial activity methicillin-resistant Staphylococcus aureus MRSA B-10760 assessed as inhibition of bacterial growth incubated for 16 to 24 hrs by broth microdilution assay. Format: functional. The note with it: time 16-24 hrs.
The test system of test [20] is Escherichia coli. The test is described as follows: Antimicrobial activity against Escherichia coli MTCC 1573 assessed as bacterial growth inhibition incubated for 24 hrs by broth micro dilution method. Format: functional.
The test system of test [21] is Pseudomonas aeruginosa. The test is described as follows: Antimicrobial activity against Pseudomonas aeruginosa MTCC 424 assessed as bacterial growth inhibition incubated for 24 hrs by broth micro dilution method. Type of test: functional.
Test [22] has as its system Staphylococcus aureus. The test is described as follows: Antimicrobial activity against Staphylococcus aureus MTCC 1430 assessed as bacterial growth inhibition incubated for 24 hrs by broth micro dilution method. Type of test: functional.
For test [23], the system named is Bacillus subtilis. The test is described as follows: Antimicrobial activity against Bacillus subtilis MTCC 441 assessed as bacterial growth inhibition incubated for 24 hrs by broth micro dilution method. Format: functional.
Test [24] deals with Staphylococcus aureus. The test is described as follows: Antibacterial activity methicillin-resistant Staphylococcus aureus ATCC 33591 assessed as inhibition of bacterial growth after 24 hrs by microdilution broth method. Type of test: functional.
Test [25] has as its system Staphylococcus aureus. The test is described as follows: Antibacterial activity methicillin-sensitive Staphylococcus aureus ATCC 25923 assessed as inhibition of bacterial growth after 24 hrs by microdilution broth method. Format: functional.
The test system of test [26] is Staphylococcus aureus. The test is described as follows: Antibacterial activity methicillin-resistant Staphylococcus aureus OM481 assessed as inhibition of bacterial growth by liquid dilution method. Type of test: functional.
Test [27] concerns Staphylococcus aureus. The test is described as follows: Antibacterial activity methicillin-resistant Staphylococcus aureus OM584 assessed as inhibition of bacterial growth by liquid dilution method. Type of test: functional.
Test [28] relates to Bacillus cereus. The test is described as follows: Antibacterial activity Bacillus cereus assessed as inhibition of bacterial growth after 18 hrs by broth dilution method. Format: functional.
Test [29] relates to Bacillus subtilis. The test is described as follows: Antibacterial activity Bacillus subtilis assessed as inhibition of bacterial growth after 18 hrs by broth dilution method. Type of test: functional.
Test [30] concerns Pectobacterium carotovorum. The test is described as follows: Antibacterial activity Pectobacterium carotovorum assessed as inhibition of bacterial growth after 18 hrs by broth dilution method. Format: functional.
The subject of test [31] is Escherichia coli. The test is described as follows: Antibacterial activity Escherichia coli assessed as inhibition of bacterial growth after 18 hrs by broth dilution method. Format: functional.
The test system of test [32] is Staphylococcus aureus. The test is described as follows: Antibacterial activity Staphylococcus aureus assessed as inhibition of bacterial growth after 18 hrs by broth dilution method. Type of test: functional.

Converted amounts (≈) assume the structure as drawn.

In the case of `COc1ccc(C(=O)CC(SC(=S)N2CCOCC2)c2ccc(OC)c(OC)c2)cc1` (stereo unspecified), the half-maximal inhibitory concentration (IC50) in [1] amounted to 27.48 µg/mL (≈ 59.5 µM). Moreover, the MIC in [2] and in test [3] was 32 µg/mL (≈ 69.3 µM) throughout.

For the compound `O=C(/C=C/c1ccc(N2CCCCC2)cc1)c1ccc(O)cc1O`, the minimum inhibitory concentration (MIC) in test [4] and in [5] was 3.12 µg/mL (≈ 9.66 µM) throughout.

Take `COc1ccc(C(=O)/C=C/c2ccc(O)cc2)c(O)c1CC=C(C)C`: the MIC in test [6], in test [7] and in test [8] was 2 µg/mL (≈ 5.91 µM) each time.

`COc1ccc(/C=C/C(=O)c2ccc(O)c(C)c2)cc1Br`: the MIC in test [9] is 1.56 µg/mL (≈ 4.49 µM).

`O=C(/C=C/c1ccc(Cl)cc1)c1ccc(O)cc1`: the MIC in [10], in test [11], in test [12], in test [13], in [14] and in [15] was 25 µg/mL (≈ 96.6 µM) in each case. In addition, the minimum inhibitory concentration (MIC) in [16], in test [17], in test [18] and in test [19] was 25 µg/mL (≈ 96.6 µM) each time.

Consider `CSc1ccc(/C=C/C(=O)c2nnn(-c3c(C)c(C(F)(F)F)cc(Cl)c3Cl)c2C)cc1`, for which the MIC was found to be 3.12 µg/mL (≈ 6.42 µM) in test [20], 12.5 µg/mL (≈ 25.7 µM) in [21], 6.25 µg/mL (≈ 12.9 µM) in test [22] and 3.12 µg/mL (≈ 6.42 µM) in test [23].

For the compound `O=C(/C=C/c1ccccc1)c1ccc(O)cc1O` [2',4'-DIHYDROXYCHALCONE], the minimal inhibitory concentration (MIC) in test [24] is 100 µg/mL (≈ 416 µM); in test [25], 50 µg/mL (≈ 208 µM).

Turning to `CC(C)=CCc1c(O)ccc(C(=O)/C=C/c2ccc(O)c(C)c2)c1O`, the MIC was 16 µg/mL (≈ 47.3 µM) in test [26] and 8 µg/mL (≈ 23.6 µM) in test [27].

As to `O=C(/C=C/c1c[nH]c2ccccc12)c1cccc(OCc2ccccc2)c1`, the MIC in [10], in test [11], in [12], in [13], in test [14] and in test [15] was 12.5 µg/mL (≈ 35.4 µM) throughout. Besides, the MIC in test [16], in [17], in [18] and in [19] was 12.5 µg/mL (≈ 35.4 µM) throughout.

Consider `COc1ccc(C(=O)/C=C/c2ccc(O)cc2)c(O)c1C/C=C(\C)CCC=C(C)C` [XANTHOANGELOL F], for which the MIC in test [6], in test [7] and in [8] was 64 µg/mL (≈ 157 µM) in each case.

Turning to `COc1cc(C(CC(=O)c2ccc(C)cc2)SC(=S)N2CCN(Cc3ccccc3)CC2)cc(OC)c1OC` (stereo unspecified), in test [1], the IC50 turned out to be 30.97 µg/mL (≈ 54.8 µM). Moreover, the MIC in test [2] was 32 µg/mL (≈ 56.7 µM); in test [3] it was 64 µg/mL (≈ 113 µM).

In the case of `O=C(/C=C/c1ccc(O)cc1)c1ccc(O)cc1O` [ISOLIQUIRITIGENIN], the minimum inhibitory concentration (MIC) worked out at 15.5 µg/mL (≈ 60.5 µM) in [28]; 31.3 µg/mL (≈ 122 µM) in test [29]; 15.5 µg/mL (≈ 60.5 µM) in test [30]; 31.3 µg/mL (≈ 122 µM) in test [31]; 7.8 µg/mL (≈ 30.4 µM) in test [32].

For the compound `COc1cccc(/C=C/C(=O)c2ccc(O)cc2O)c1OC`, the MIC in test [28] turned out to be 62.5 µg/mL (≈ 208 µM); in [29], 125 µg/mL (≈ 416 µM); in test [30], 125 µg/mL (≈ 416 µM); in test [31], 62.5 µg/mL (≈ 208 µM); in test [32] it was 62.5 µg/mL (≈ 208 µM).

Regarding `COc1ccc(C(=O)/C=C/c2ccc(F)cc2)cc1`, the MIC in [9] came to 12.5 µg/mL (≈ 48.8 µM).

In the case of `CC(C)=CCC/C(C)=C/Cc1c(O)ccc(C(=O)/C=C/c2ccc(O)cc2)c1O` [XANTHOANGELOL], the MIC in test [6], in [7] and in [8] was 4 µg/mL (≈ 10.2 µM) in each case.

Regarding `Cc1c(C(F)(F)F)cc(Cl)c(Cl)c1-n1nnc(C(=O)/C=C/c2cn(-c3ccccc3)nc2-c2ccc(Cl)cc2)c1C`, the MIC in [20] was found to be 3.12 µg/mL (≈ 5.06 µM); in test [21], 3.12 µg/mL (≈ 5.06 µM); in [22], 12.5 µg/mL (≈ 20.3 µM); in test [23], 6.25 µg/mL (≈ 10.1 µM).

What is called IC50 is the point on the concentration scale where inhibition reaches its midpoint. The MIC is the smallest concentration in the dilution series that meets the test's criterion for growth inhibition.
